Results published in patent publication US20250002503A1, “OXADIAZASPIRO COMPOUNDS FOR USE IN THE TREATMENT OF MOTONEURON DEGENERATION OR IN NEUROPROTECTION” (ESTEVE PHARMACEUTICALS, S.A., priority 2021, published 2025).
Like-named read-outs stand apart in the source and are kept apart here.

What was measured:
[1] = test system: rhizotomized mice (L4-L5 spinal nerve section); assay: L4-L5 spinal roots injury (rhizotomy): MN survival, glial reactivity, tolerability; conditions: for number of spinal MNs in the ipsilateral ventral horn (L4-L5) / astroglial reactivity, GFAP integrated density / microglial reactivity, IBA1 integrated density: 42 dpi, mean±SEM
Procedure: Briefly, the L4-L5 spinal roots were exposed by a small laminectomy on the right side. Then, roots were cut at the exit from the intervertebral foramina and the root stumps were separated. Mice were cared until recovery in warm environment.
The compounds were dissolved in 0.5% hydroxypropyl-methylcellulose (HPMC; Sigma-Aldrich) in distilled water. The compounds were administered by intraperitoneal (i.p.) route twice daily (bid) in a volume of 10 ml/kg. Administrations were given from 30 min after rhizotomy surgery until 42 days post-injury (dpi), the end of the study; in the SOD1^G93A study, treatments were given from 8 to 16 weeks of age.
At the end of follow up (42 days post-injury (dpi)) for rhizotomy and 16 weeks of age for ALS mice) the animals were deeply anesthetized and transcardially perfused with 4% paraformaldehyde in PBS. The lumbar spinal cord and the TA muscle were harvested and cryopreserved in 30% sucrose solution in PB. The spinal cords were serially cut in 20 μm-thick transverse sections with a cryostat (Leica). For MN counting, L4-L5 spinal cord sections separated 100 μm were stained for 3 h with an acidified solution of 3.1 mM cresyl violet.
Finally, sides were mounted with Fluoromount G. To quantify glial cell reactivity, images of the ventral horn were acquired with an epifluorescence microscope (Nikon Eclipse Ni, Japan) using the same conditions for each analyzed marker. After defining a threshold for background correction, the integrated density of GFAP or Iba1 labeling was measured using ImageJ software.

Sig-2R = Sig-2R (Homo sapiens, UniProt Q5BJF2); assay: Affinity for the Sig-2R; assay type: binding; conditions: not shown
Procedure: (§1) A selectivity profile (Spectrum Screen) including a panel with more than 180 binding assays for different receptors, ion channels, transporters and enzymes was performed for compound A and compound B at EurofinsPanlabs according to their specifications.

[2] = Pharmacokinetics in plasma and brain after single i.p. dose; conditions: for half-life: t1/2 (terminal half-life); for half-life / AUC, brain / Cmax, brain / penetration into the brain: single i.p. 10 mg/kg; for half-life / AUC, brain / Cmax, brain: female mice; for penetration into the brain: mice
Procedure: (§2) Blood and brain samples were extracted at selected time points (15 min, 1, 3 and 6 h) from two animals per sampling point. Blood samples were collected by intracardiac puncture into heparinized tubes. Plasma was obtained by blood centrifugation at 4° C. and 2280 g for 10 min. Plasma and brain samples were kept at −80° C. until analysis. Brains were homogenized with Dulbecco's phosphate saline buffer pH 7.4 (4 ml/g tissue). Plasma and brain samples were assayed by ultra-performance liquid chromatography-triple quadrupole mass spectrometry (UPLC-MS/MS) after protein precipitation. Standard pharmacokinetic parameters, such as the area under the curve (AUC), peak plasma concentration (Cmax), time to peak concentration (tmax), and terminal half-life (t1/2) were determined by noncompartmental analysis of the plasma and brain concentration-time curves (Phoenix v.6.2.1.51, Pharsight, CA).

in vivo [3] = assay: in vivo; parameters: species or system male SOD1^G93A mice; conditions: mouse, ip; for concentration at 15 min: male, SOD1^G93A
Procedure: Plasma levels were determined in the two in vivo models evaluated to be able to associate the pharmacological activity with the levels present in plasma. […] […] […] Results are expressed as mean±standard deviation (n=2-6).

SOD1^G93A mice = conditions: for NMJ innervation (proportion of innervated endplates) of hindlimb muscle: SOD1^G93A mice at 16 weeks; for NMJ innervation (proportion of innervated endplates) of hindlimb muscle / astrocyte activation (GFAP) in ventral horn: compounds 5 mg/kg; for NMJ innervation (proportion of innervated endplates) of hindlimb muscle / CMAP amplitude of TA and plantar muscles / astrocyte activation (GFAP) in ventral horn: PRE-084 0.25 mg/kg i.p. bid; for CMAP amplitude of TA and plantar muscles / number of surviving spinal MNs per section / astrocyte activation (GFAP) in ventral horn: SOD1^G93A mice; for CMAP amplitude of TA and plantar muscles: 11 and 13 weeks, compound 5 mg/kg; for number of surviving spinal MNs per section: 16 weeks of age, mean±SEM; for astrocyte activation (GFAP) in ventral horn: 16 weeks
Procedure: Motor nerve conduction tests were performed before the surgery to obtain baseline values and at the end of the follow up in the rhizotomy model, whereas the SOD1^G93A mice were evaluated at 8 weeks (prior to starting drug administration) and then every 2-3 weeks until the end point at 16 weeks of age. The sciatic nerve was stimulated by means of single pulses delivered through needle electrodes placed at the sciatic notch. The compound muscle action potential (CMAP) was recorded from tibialis anterior (TA), gastrocnemius (GM) and plantar interossei muscles with microneedle electrodes (Mancuso et al., 2011). The CMAPs were amplified to measure the latency to the onset and the amplitude from baseline to the maximal negative peak. The mice were anesthetized with pentobarbital (50 mg/kg i.p.) and their body temperature was maintained by means of a thermostated warming pad.
For neuromuscular junctions (NMJ) labeling, 50 μm-thick longitudinal sections of TA muscle were serially cut. Sections were blocked with 5% normal donkey serum and incubated with primary antibodies rabbit anti-synaptophysin (1:500; AB32127, Abcam) and chicken anti-neurofilament 200 (NF200, 1:1000; AB5539, Millipore, USA) 48 h at 4° C. After washes, sections were incubated overnight with secondary antibody Alexa Fluor 594-donkey anti-rabbit and anti-chicken (1:200; A11042-A21207, Invitrogen, USA) and Alexa 488 conjugated α-bungarotoxin (1:500; B13422, Life Technologies, USA). Confocal images were captured (LSM 700 Axio Observer, Carl Zeiss, 40×Oil/z0.5) and the maximum projection images generated from 1.3 μm z projections. The proportion of innervated NMJs was calculated by classifying each endplate as occupied (when presynaptic terminals overly the endplate) or vacant (no presynaptic label in contact with the endplate). At least 60 endplates were analyzed per muscle.

human Sig-1R = human Sig-1R (Homo sapiens, UniProt Q99720); assay: Affinity for the human Sig-1R; assay type: binding
Procedure: as §1

[4] = test system: motoneurons (MNs) in spinal cord organotypic cultures; assay: Spinal cord organotypic cultures (SCOCs) under THA chronic excitotoxicity, SMI-32 positive MN count; assay type: cell-based, Sprague-Dawley rats; conditions: THA 100 μM, 28 DIV
Procedure: Briefly, the spinal cord was collected and cut in 350 μm thick transverse sections with a Mcllwain Tissue Chopper. Four lumbar sections per sample were transferred onto Millicell-CM nets (0.4 μm, PICM03050, Millipore) in medium [50% (v/v) minimal essential medium (MEM, M5775, Sigma), 2 mM glutamine, 25 mM HEPES, 25% (v/v) Hank's Balanced Salt Solution (HBSS^−/−, 14175, Gibco) supplemented with 25.6 mg/ml glucose and 25% (v/v) heat-inactivated horse serum (26050-088, Gibco), pH=7.2]. Cultures were maintained at 37° C. in a 5% CO2 humidified cabin and let to stabilize. After 7 days in vitro (DIV), DL-threo-b-hydroxyaspartic acid (THA; 100 μM) was added to induce chronic excitotoxicity (Rothstein et al., 1993). The neuroprotective effect of each Sig-1R ligand was assessed by its coaddition to the culture with THA and renewing at each medium change. […] In vitro experiments were performed in three independent cultures, with at least 12 different SCOCs for each experimental condition.
Slices were maintained for 28 DIV and then fixed with 4% paraformaldehyde. […] MN survival was assessed by counting all SMI-32 positive neurons in each spinal cord using the Cell Counter plugin of ImageJ software.

in vivo [5] = conditions: female, C57-BL6, mouse, ip, 10 mg/kg; for half-life: t1/2 (terminal half-life)
Procedure: as §2

[6] = cited from earlier work
[7] = Plasma levels in the rhizotomy model after chronic i.p. administration; parameters: species or system female mice (B6SJL); conditions: mouse, in vivo, ip, 0.25 mg/kg
[8] = 0.5 mg/kg bid i.p., not significant
[9] = 5 mg/kg bid i.p., untreated 19×10^4±5×10^4
[10] = 5 mg/kg bid i.p., untreated 26×10^4±3×10^4
[11] = twice daily i.p. administration for 6 weeks
[12] = female, C57-BL6, mouse, brain, ip, 10 mg/kg
[13] = female, C57-BL6, mouse, plasma, ip, 10 mg/kg
[14] = 5 mg/kg i.p. bid, untreated 6.9±0.5, WT 25.3±0.5

human Sig-1R, sequence (Q99720 whole entry): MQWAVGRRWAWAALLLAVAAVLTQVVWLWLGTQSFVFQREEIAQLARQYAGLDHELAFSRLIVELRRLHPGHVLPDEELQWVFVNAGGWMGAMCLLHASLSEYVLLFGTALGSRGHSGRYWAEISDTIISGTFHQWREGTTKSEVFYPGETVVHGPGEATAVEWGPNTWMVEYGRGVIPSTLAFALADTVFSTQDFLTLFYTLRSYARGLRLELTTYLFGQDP
Sig-2R, sequence (Q5BJF2 whole entry): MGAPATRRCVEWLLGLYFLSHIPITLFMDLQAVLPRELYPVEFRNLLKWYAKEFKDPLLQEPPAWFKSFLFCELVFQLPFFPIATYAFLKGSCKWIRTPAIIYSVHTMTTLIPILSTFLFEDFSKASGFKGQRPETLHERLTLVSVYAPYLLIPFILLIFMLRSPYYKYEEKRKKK

Compound | number of spinal MNs in the ipsilateral ventral horn (L4-L5) [1, 8] | astroglial reactivity, GFAP integrated density [1, 9] | microglial reactivity, IBA1 integrated density [1, 10] | toxicity on chronic administration [1, 11] | IC50 (Sig-2R) [µM] | AUC, brain ([2]; brain) [ng·h/g] | Cmax, brain ([2]; brain) [ng/g] | penetration into the brain [2] | concentration at 15 min (in vivo [3]; 5 mg/kg) [ng/mL] | NMJ innervation (proportion of innervated endplates) of hindlimb muscle (SOD1^G93A mice) | CMAP amplitude of TA and plantar muscles (SOD1^G93A mice) | number of surviving spinal MNs per section (SOD1^G93A mice; [14]) | astrocyte activation (GFAP) in ventral horn (SOD1^G93A mice) | affinity for the human Sig-1R (human Sig-1R) | also measured
C[C@@H]1OC2(CCN(Cc3ccc(F)cc3)CC2)CN(C)C1=O [Compound A, (S)-9-(4-fluorobenzyl)-2,4-dimethyl-1-oxa-4,9-diazaspiro[5.5]undecan-3-one] | 7.6±0.9 | 4×10^4±0.4×10^4 | 13×10^4±2×10^4 | did not cause toxicity | > 10 | 4873 | 5405 | good penetration into the brain | ~500 | tendency to preserve NMJ innervation | significantly prevented the decline in amplitude of the CMAP | 10.8±1.1 | significant decrease of astrocyte activation | high affinity | number of spinal MNs in the ipsilateral ventral horn (L4-L5) ([1]; 5 mg/kg/bid i.p. for 6 weeks, untreated injured 6.8±0.3): 8.6±0.6; Kp ([2]; female, C57-BL6, mouse, brain and plasma, ip, 10 mg/kg): 4.4; Tmax [2, 12]: 15 min; half-life [2, 12]: > 300 min; AUC [2, 13]: 1120 ng·h/mL; Cmax [2, 13]: 1350 ng/mL; Tmax [2, 13]: 15 min; half-life [2, 13]: > 300 min; estimated brain concentration (in vivo [3]; 5 mg/kg): about two-fold the concentration of compound B; number of SMI-32 positive neurons vs THA condition ([4]; tested at 0.03, 0.3, 3 and 30 μM, significant at three concentrations): significantly more SMI-32 positive neurons
CCN1CC2(CCN(Cc3ccc(C#N)c(F)c3)CC2)O[C@@H](C)C1=O [Compound B, (S)-4-((4-ethyl-2-methyl-3-oxo-1-oxa-4,9-diazaspiro[5.5]undecan-9-yl)methyl)-2-fluorobenzonitrile] | 7.4±0.7 | 15×10^4±2.7×10^4 | 25×10^4±4×10^4 | did not cause toxicity | > 10 | 1698 | 2652 | good penetration into the brain | ~500 | tendency to preserve NMJ innervation | – | 8.5±1.0 | significant decrease of astrocyte activation | high affinity | body weight compared with the vehicle group [1, 11]: no difference in body weight; AUC (in vivo [5]): 802 ng·h/mL; Cmax (in vivo [5]): 1340 ng/mL; Kp (in vivo [5]): 2.1; Tmax (in vivo [5]): 15 min; half-life (in vivo [5]; brain): 204 min; half-life (in vivo [5]; plasma): 132 min; preservation of MNs (SMI-32 positive) vs THA condition ([4]; 3 and 30 μM): significantly preserved MNs
O=C(OCCN1CCOCC1)C1(c2ccccc2)CCCCC1 [PRE-084, reference compound] | – | – | – | – | – | – | – | – | – | significantly increased the proportion of innervated endplates | higher CMAP amplitude values | – | significant decrease of astrocyte activation | good affinity | astroglial reactivity, GFAP integrated density ([1]; 0.25 mg/kg bid i.p.): 6×10^4±0.9×10^4; microglial reactivity, IBA1 integrated density ([1]; 0.25 mg/kg bid i.p.): 15×10^4±1.4×10^4; number of spinal MNs in the ipsilateral ventral horn (L4-L5) ([1]; 0.25 mg/kg bid i.p., positive control): 8.9±0.4; Cmax, plasma ([6]; mouse, in vivo, ip, 10 mg/kg): 659 ng/mL; Cmax, brain ([6]; single i.p. 10 mg/kg, concentration at 5 min post-administration, brain): 774 ng/g; Plasma concentration 30 min post-administration (in vivo [3]; 0.25 mg/kg): 2.6 ng/mL; number of surviving spinal MNs per section (SOD1^G93A mice; 0.25 mg/kg i.p. bid): 12.4±0.9; Plasma concentration 30 min post-administration [7]: 3.6 ng/mL
